Assay results taken from article PMC10707468, “Pharmacokinetics of Novel Dopamine Transporter Inhibitor CE-123 and Modafinil with a Focus on Central Nervous System Distribution” (International Journal of Molecular Sciences, 2023).

How the values were obtained:
male Sprague-Dawley rats = tested on: male Sprague-Dawley rats; design: method as in PMID 29230168, PMID 29410048, PMID 33940050; settings: cited from earlier work
[1] = tested on: cerebEND in vitro model of the blood–brain barrier; settings: cerebEND; cited from earlier work
[2] = In vivo rat tissue biodistribution / neuroPK study, 4 h intravenous constant infusion; design: species or system Sprague-Dawley rats; settings: for metabolite detection in rat samples: after 4 h iv infusion 20 mg/kg of parent
Description: The results are summarized in Figure 4 and Table S2 within Supplementary Materials.
In order to minimize the usage of animals and gain high confidence in the tissue distribution, a 4 h constant intravenous infusion study was designed based on the systemic pharmacokinetic parameters determined elsewhere. The catheters were surgically implanted a day before the PK experiment. The rats (n = 3 per compound) were then individually placed into a CMA 120 system (CMA, Solna, Sweden). […] A dose of 20 mg/kg was administered as a combination of an initial short 10 min infusion as a loading dose followed by a constant infusion up to 4 h, targeting a steady-state total plasma concentration of around 1000 ng/mL for each compound (based on the pilot study results). Blood was collected into heparinized Eppendorf tubes via a femoral artery catheter at 0 (before infusion starts) 1, 2, 3, and 4 h after the infusion started and immediately centrifuged at 10,000 rpm for 5 min at +4 °C. Plasma was then collected and kept at −20 °C. At 4 h, the rats were anesthetized via inhalation of 2.5% isoflurane (Abbot Scandinavia, Solna, Sweden), balanced with 1.5 L/min oxygen, after which the terminal blood and tissue samples were collected. […] The tissue samples (brain, spinal cord, liver, and kidney) were rapidly removed, pre-weighed into a 2 mL hard tissue homogenizing tube with mini-beads, and subsequently homogenized in 2 volumes of MQ water using a 4-Place Bead Mill Homogenizer (VWR, Stockholm, Sweden) at the maximal speed for 2 min and thereafter kept at +4 °C. The plasma and tissue homogenate samples were stored at −20 °C until LC–MS analysis.
For all the rat plasma and CSF samples, an aliquot of 50 µL was spiked with 50 µL of 4% PA in water containing the IS solution to disrupt the drug–protein binding. For all rat tissue samples (brain, spinal cord, liver, and kidney), an aliquot of 50 µL was spiked with 50 µL ice-cold ACN containing the IS solution for protein precipitation. The samples were vortexed and spun down for 10 min (3000× g, 4 °C) and 25 µL of clear supernatant was diluted with 225 µL 0.1% FA in water to achieve 10% of ACN in the solution. SPE clean-up was performed using an Oasis PRiME HLB µElution 96-well plate, 3 mg (Waters Corporation, Vienna, Austria). The SPE cartridges were preconditioned and equilibrated with 1 × 200 µL ACN and 0.1% FA in water each. The samples were loaded onto the cartridges and washed with 2 × 200 µL 0.1% FA in water and 1 × 200 µL ACN/0.1% FA in water 10:90 (v:v). The analytes were eluted from the SPE cartridge into a collection plate with 2 × 25 µL ACN/0.1% FA in water 70:30 (v:v). All the samples were diluted with 50 µL of 0.1% FA in water and 10 µL of sample was injected onto the LC–HRMS system.
All samples, blanks, standards, and quality control samples in the respective matrices were analyzed on a UHPLC system (Dionex UltiMate 3000 RSLC series system, Thermo Fisher Scientific, Inc., Dreieich, Germany) coupled with a high-resolution mass spectrometer (maXis HD Q-TOF, Bruker Daltonics, Bremen, Germany) equipped with a heated electrospray ionization (ESI) source. Reversed-phase chromatographic separation was performed on a Kinetex Phenyl-Hexyl column (2.6 µm, 2.1 × 50 mm, Phenomenex, Torrance, CA, USA), equipped with a precolumn (2.6 µm, Phenomenex, Torrance, CA, USA), at a flow rate of 0.4 mL/min. Eluent A was water containing 0.1% FA and eluent B ACN. A multi-step gradient was optimized as follows: the initial mobile phase composition (5% eluent B) was held constant for 1 min, followed by a linear increase to 30% eluent B until minute 1.5, to 40% eluent B until minute 5.5, and to 95% eluent B until minute 6. After a hold time of 2 min, the column was re-equilibrated for 2.5 min at the initial conditions (5% eluent B). The column compartment and the autosampler were maintained at 40 °C and at 8 °C, respectively. […]

[3] = In vitro metabolic stability in human liver microsomes; assay type: in vitro ADME; settings: R-modafinil 1, 5, 10, 50 µM
Description: An in vitro metabolism assay to study the phase I metabolism in the HLMs was in-house-developed. Optimization of the protocol included the test compound concentration (1, 5, 10 m and 50 µM) and extraction solvents (ACN and MeOH). […] The metabolic assay was initiated by the addition of 10 mM NADPH to the reaction solution and terminated after 0, 2.5, 5, 15, 30, 45, and 60 min via the addition of 200 µL of ice-cold MeOH containing the IS solution. The samples were than vortexed and spun for 15 min (14,000× g, 4 °C). The supernatant was collected, evaporated to dryness using the Concentrator plus (Eppendorf), and reconstituted with 100 µL of ACN/0.1% FA in water 10:90 (v:v). To ensure that the assay was performing adequately, the incubation of 1 µM diazepam at the same assay conditions as described was conducted, and the formation of its metabolites temazepam and nordazepam was monitored. A negative control included the absence of NADPH, the test compound, or HLMs during assay. […] The metabolic stability curves of the tested compounds were established by plotting the incubation time against the natural logarithm of the % parent drug remaining. The slope (k) of the linear part was utilized for the in vitro half-life (t1/2, min) as ln2/k. The V (µL/mg) was calculated as the volume of the reaction solution (100 µL) divided by the protein amount in the incubation (0.5 mg). The protein amount was predetermined by the supplier and the content was checked by using a Pierce™ BCA Protein Assay Kit (Thermo Fisher Scientific, Vienna, Austria) for each freshly opened tube. The intrinsic clearance (CLint, µL/min/mg) was calculated according to the following equation:(7) CLint=0.693/t1/2·V […]

[4] = In vitro plasma stability assay; assay type: in vitro ADME; settings: rat plasma, 37 °C
Description: In vitro plasma stability assay was used in the scope of the validation studies. Briefly, 40 μL of blank rat plasma or blank rat plasma containing 10% DMF as an inhibitor was first pre-warmed for 5 min at 37 °C using a Thermomixer® comfort (Eppendorf, Hamburg, Germany). […] The reaction was terminated after 0, 1, 2, and 4 h, via the addition of 50 μL of ice-cold ACN containing the IS solution. The samples were centrifuged for 10 min at 3000× g at 4 °C. The supernatant of all samples was diluted with 0.1% FA in water, 1:2 (v:v), and 10 µL of the sample was injected onto the LC–HRMS system.

CYP1A2 = settings: ref Robertson et al. (2000) [72]; cited from earlier work
CYP2B6 = settings: ref Robertson et al. (2000) [72]; cited from earlier work
CYP2C19 = CYP2C19 (Homo sapiens, UniProt P33261); settings: in HLMs; ref Robertson et al. (2000) [72]; cited from earlier work
CYP2C9 = CYP2C9 (Homo sapiens, UniProt P11712); settings: primary cell cultures of human hepatocytes; ref Robertson et al. (2000) [72]; cited from earlier work
Chain of CYP2C9 (P11712 whole entry): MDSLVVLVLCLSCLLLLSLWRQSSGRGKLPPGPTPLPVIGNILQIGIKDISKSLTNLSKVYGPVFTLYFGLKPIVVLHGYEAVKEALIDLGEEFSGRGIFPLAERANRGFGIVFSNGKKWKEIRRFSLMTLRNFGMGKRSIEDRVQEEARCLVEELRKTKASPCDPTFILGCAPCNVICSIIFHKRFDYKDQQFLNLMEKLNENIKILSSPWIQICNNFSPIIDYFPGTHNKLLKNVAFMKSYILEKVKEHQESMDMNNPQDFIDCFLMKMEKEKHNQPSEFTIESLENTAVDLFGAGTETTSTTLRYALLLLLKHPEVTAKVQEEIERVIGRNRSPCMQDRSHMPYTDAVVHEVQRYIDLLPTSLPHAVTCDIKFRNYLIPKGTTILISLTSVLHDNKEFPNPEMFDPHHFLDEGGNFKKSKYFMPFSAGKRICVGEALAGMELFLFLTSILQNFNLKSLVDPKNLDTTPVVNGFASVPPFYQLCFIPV

Chain of CYP2C19 (P33261 whole entry): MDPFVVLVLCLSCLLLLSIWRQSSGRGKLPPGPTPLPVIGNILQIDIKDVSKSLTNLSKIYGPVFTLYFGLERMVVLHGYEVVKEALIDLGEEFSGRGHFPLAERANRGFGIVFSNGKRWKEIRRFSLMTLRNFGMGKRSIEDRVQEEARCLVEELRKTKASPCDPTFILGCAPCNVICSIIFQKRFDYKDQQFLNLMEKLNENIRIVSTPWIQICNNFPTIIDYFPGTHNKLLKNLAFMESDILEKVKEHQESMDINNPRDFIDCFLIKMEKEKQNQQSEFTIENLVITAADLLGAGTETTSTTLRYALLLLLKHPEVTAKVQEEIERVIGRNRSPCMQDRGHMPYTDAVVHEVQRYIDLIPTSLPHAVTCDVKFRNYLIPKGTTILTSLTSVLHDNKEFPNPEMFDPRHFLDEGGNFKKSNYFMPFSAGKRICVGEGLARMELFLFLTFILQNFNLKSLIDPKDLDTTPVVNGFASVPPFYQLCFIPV

[O-][S+](c1cncs1)C(c1ccccc1)c1ccccc1 (stereo not shown) [CE-123, 5-[(Diphenylmethyl)sulfinyl]thiazole]
cognitive flexibility (male Sprague-Dawley rats; male Sprague-Dawley rats, without impulsive responding, compared to R-modafinil): enhance the cognitive flexibility
memory acquisition and memory retrieval (male Sprague-Dawley rats; rats, doses that did not change locomotor activity): enhance memory acquisition and memory retrieval
ability to cross in vitro model of the BBB [1]: could penetrate the BBB in a similar manner to diazepam

O=C(O)C[S+]([O-])C(c1ccccc1)c1ccccc1 (stereo not shown) [modafinic acid]
metabolite detection in rat samples [2]: detected together in the plasma, CSF, liver, and kidneys
metabolite formation during HLM incubation of R-modafinil [3]: not detected
metabolite detection during plasma incubation of R-modafinil [4]: detected at the 2 and 4 h time points

NC(=O)CS(=O)(=O)C(c1ccccc1)c1ccccc1 [modafinil sulfone]
metabolite detection in rat samples [2]: detected together in the plasma, CSF, liver, and kidneys
detection in rat brain and spinal cord tissue ([2]; after 4 h iv infusion of R-modafinil 20 mg/kg, S/N below LOQ): detected
metabolite formation during HLM incubation of R-modafinil [3]: observed at all concentrations

NC(=O)C[S+]([O-])C(c1ccccc1)c1ccccc1 (stereo not shown) [modafinil, 2-[(Diphenylmethyl)sulfinyl]acetamide]
CYP1A2 induction (CYP1A2): modestly induces
CYP2B6 induction (CYP2B6): modestly induces
CYP2C19 inhibition (CYP2C19): reversible inhibition
CYP2C9 activity (CYP2C9): apparent suppression
